According to US20080096958A1, “Antibacterial Composition” (priority 2004, published 2008):
Converted amounts (≈) assume the structure as drawn. Read-outs that look alike come from different tables or passages of the source.

Experiments:
Format in all cases: cell-based
[1] = system: Staphyrococcus epidermidis JCM 2414; assay: MIC by Agar Dilution Test, Se-1; conditions: read-out: Minimum inhibitory concentration (MIC)
Procedure: (§1) Minimum inhibitory concentration (MIC) was determined by Agar Dilution Test (ADT).
(§2) Each antibacterial composition obtained in Example 1 was dissolved in ethanol or water (according to solubility of each antibacterial composition) to carry out two-fold serial dilution. A hundred μl of the resultant was added to a 10 ml sterilized agar medium (skin-related bacteria and standard bacteria in Mueller-Hinton Medium (Difco), yeast and filamentous bacteria in Sabroud Medium (Difco) and anaerobic bacteria in Trypticase Soy agar (BBL)), well agitated, transferred to a 9 cmf petri dish and immobilized at room temperature. To this petri dish, a 27-spot microplanter MIT-P from Sakuma Seisakusho, LTD. was used to spot 1×10^5 cfu (colony forming unit) of skin-related bacteria and standard bacteria, and the resultants were cultured at 37° C. for 18 hours. Anaerobic bacteria are cultured at 37° C. for 72 hours under anaerobic conditions (using BBL gas pack anaerobic system). After completion of cultivation, growth of each bacterium was compared with that in a petri dish with alcohol alone (blank). A concentration of a sample without a bacterium growth was determined as the minimum inhibitory concentration (MIC).
(§3) As comparative substances, butylparaben (BPHB) and triclosan were determined as well.

[2] = system: Fusobacterium nucleatum JCM 6328; assay: MIC by Agar Dilution Test, Fn-1; conditions: read-out: Minimum inhibitory concentration (MIC)
Procedure: as §1, §2, §3

[3] = system: Staphyrococcus epidermidis ATCC 12228; assay: MIC by Agar Dilution Test, Se-3; conditions: read-out: Minimum inhibitory concentration (MIC)
Procedure: as §1, §2, §3

[4] = system: Propionibacterium acnes JCM 6473; assay: MIC by Agar Dilution Test, Pa-2; conditions: Cutibacterium acnes, read-out: Minimum inhibitory concentration (MIC)
Procedure: as §1, §2, §3

[5] = system: Staphyrococcus aureus ATCC 6538; assay: MIC by Agar Dilution Test, Sa-4; conditions: read-out: Minimum inhibitory concentration (MIC)
Procedure: as §1, §2, §3
(§4) Minimum inhibitory concentration was determined by Agar Dilution Test described in Example 3 to confirm the difference of antibacterial activities at different mixture ratios.

[6] = system: Staphyrococcus epidermidis var. h-6; assay: MIC by Agar Dilution Test, Se-2; conditions: read-out: Minimum inhibitory concentration (MIC)
Procedure: as §1, §2, §3

[7] = system: Malassezia furfur IFO 0656; assay: MIC by Agar Dilution Test, Mf-1; conditions: read-out: Minimum inhibitory concentration (MIC)
Procedure: as §1, §2, §3

[8] = system: Bacteroides fragilis GM 7000 JCM 5560; assay: MIC by Agar Dilution Test, Bf-1; conditions: read-out: Minimum inhibitory concentration (MIC)
Procedure: as §1, §2, §3, §4

[9] = system: Staphyrococcus aureus 209P IAM 12082; assay: MIC by Agar Dilution Test, Sa-3; conditions: read-out: Minimum inhibitory concentration (MIC)
Procedure: as §1, §2, §3

[10] = system: Bacillus subtilis PCI 219 IFO 3134; assay: MIC by Agar Dilution Test, Bs-1; conditions: read-out: Minimum inhibitory concentration (MIC)
Procedure: as §1, §2, §3, §4

[11] = system: Actinomyces naeslundii JCM 8350; assay: MIC by Agar Dilution Test, Aa-1; conditions: read-out: Minimum inhibitory concentration (MIC)
Procedure: as §1, §2, §3

[12] = system: Porphyromonas gingivalis JCM 8525; assay: MIC by Agar Dilution Test, Pg-1; conditions: read-out: Minimum inhibitory concentration (MIC)
Procedure: as §1, §2, §3

[13] = system: Prevotella intermedia JCM 6322; assay: MIC by Agar Dilution Test, Pt-1; conditions: read-out: Minimum inhibitory concentration (MIC)
Procedure: as §1, §2, §3, §4

[14] = system: Corynebacterium xerosis JCM 1324; assay: MIC by Agar Dilution Test, Cx-2; conditions: read-out: Minimum inhibitory concentration (MIC)
Procedure: as §1, §2, §3

[15] = system: Actinomyces viscosus JCM 8352; assay: MIC by Agar Dilution Test, Av-1; conditions: read-out: Minimum inhibitory concentration (MIC)
Procedure: as §1, §2, §3

[16] = system: Alicyclobacillus Acidocaldarius (NCIMB); assay: MIC using heat-resistant acidophilic bacteria (liquid medium, turbidity); conditions: spores in AAM liquid medium, 50° C., 10 days; growth inhibited in all five media
Procedure: (§5) Spores of Alicyclobacillus Acidocaldarius (NCIMB) and Alicyclobacillus Acidoterrestris (NCIMB) were diluted with buffered saline to 1-2 million/100 μl, heated at 80° C. for 10 minutes, and added for 100 μl each per 5 ml of AAM (Alicyclobacillus Acidoterrestris medium) liquid medium. To the test media prepared as above, antibacterial composition (A) obtained in Example 1 was added according to the following steps. Twenty mg/ml, 10 mg/ml, 5 mg/ml and 2.5 mg/ml antibacterial composition (A) in grapefruit flavors were added to respective media (0.1%) (final concentration of antibacterial composition (A): 20 ppm, 10 ppm, 5 ppm and 2.5 ppm). As controls, a medium with 0.1% grapefruit flavor and a blank medium were prepared to confirm that the bacteria grow without a problem. The thus-prepared media were cultured at 50° C. for 10 days, bacteria growth was determined based on the turbidity of the media associated with proliferation of bacteria, thereby checking growth control effects. For each test bacterium and each sample, five media were subjected to the experiment, and a concentration at which bacteria in every media were inhibited was determined as the minimum inhibitory concentration (MIC).
(§6) For comparison, sucrose fatty acid ester was also determined.

[17] = system: Alicyclobacillus Acidoterrestris (NCIMB); assay: as above; conditions: spores in AAM liquid medium, 50° C., 10 days; growth inhibited in all five media
Procedure: as §5, §6

[18] = Se-1, Mueller-Hinton agar, 37° C., 18 hours
[19] = JCM6328, Fn-1, Trypticase Soy agar, 37° C., 72 hours, anaerobic
[20] = Se-3, Mueller-Hinton agar, 37° C., 18 hours
[21] = JCM6473, Pa-2, Trypticase Soy agar, 37° C., 72 hours, anaerobic
[22] = Sa-4, Mueller-Hinton agar, 37° C., 18 hours
[23] = Se-2, Mueller-Hinton agar, 37° C., 18 hours
[24] = Mf-1 (yeast), Sabroud Medium agar
[25] = JCM5560, Bf-1, Trypticase Soy agar, 37° C., 72 hours, anaerobic
[26] = Sa-3, Mueller-Hinton agar, 37° C., 18 hours
[27] = IFO3134, Bs-1, Mueller-Hinton agar, 37° C., 18 hours
[28] = JCM8350, Aa-1, Trypticase Soy agar, 37° C., 72 hours, anaerobic
[29] = JCM8525, Pg-1, Trypticase Soy agar, 37° C., 72 hours, anaerobic
[30] = JCM6322, Pt-1, Trypticase Soy agar, 37° C., 72 hours, anaerobic
[31] = JCM1324, Cx-2, Mueller-Hinton agar, 37° C., 18 hours
[32] = JCM8352, Av-1, Trypticase Soy agar, 37° C., 72 hours, anaerobic

Compound	MIC [1, 18] [µg/mL]	MIC [2, 19] [µg/mL]	MIC [3, 20] [µg/mL]	MIC [4, 21] [µg/mL]	MIC [5, 22] [µg/mL]	MIC [6, 23] [µg/mL]	MIC [7, 24] [µg/mL]	MIC [8, 25] [µg/mL]	MIC [9, 26] [µg/mL]	MIC [10, 27] [µg/mL]	MIC [11, 28] [µg/mL]	MIC [12, 29] [µg/mL]	MIC [13, 30] [µg/mL]	MIC [14, 31] [µg/mL]	MIC [15, 32] [µg/mL]	MIC ([1]; 18 h) [µg/mL]	MIC ([3]; 18 h) [µg/mL]	MIC ([5]; 18 h) [µg/mL]	MIC ([6]; 18 h) [µg/mL]	MIC [7] [µg/mL]	other results
COc1cc(O)c2ccc(=O)oc2c1C/C=C(/C)CCC=C(C)C [Antibacterial composition (F), 8-(3′,7′-dimethyl-2′,6′-octadienyl)-5-hydroxy-7-methoxy-2H-1-benzopyran-2-one]	200 (≈ 609 µM)	25 (≈ 76.1 µM)	200 (≈ 609 µM)	25 (≈ 76.1 µM)	200 (≈ 609 µM)	200 (≈ 609 µM)	25 (≈ 76.1 µM)	100 (≈ 304 µM)	25 (≈ 76.1 µM)	200 (≈ 609 µM)	25 (≈ 76.1 µM)	25 (≈ 76.1 µM)	100 (≈ 304 µM)	200 (≈ 609 µM)	25 (≈ 76.1 µM)	–	–	–	–	–	–
CC(C)=CCC/C(C)=C\Cc1c2occc2c(O)c2ccc(=O)oc12 [Antibacterial composition (G), 9-(3′,7′-dimethyl-2′,6′-octadienyl)-4-hydroxy-7H-furo[3,2-γ][1]benzopyran-7-one]	200 (≈ 591 µM)	50 (≈ 148 µM)	200 (≈ 591 µM)	100 (≈ 296 µM)	200 (≈ 591 µM)	200 (≈ 591 µM)	50 (≈ 148 µM)	100 (≈ 296 µM)	100 (≈ 296 µM)	200 (≈ 591 µM)	200 (≈ 591 µM)	50 (≈ 148 µM)	100 (≈ 296 µM)	200 (≈ 591 µM)	100 (≈ 296 µM)	–	–	–	–	–	–
CCCCOC(=O)c1ccc(O)cc1 [Butylparaben, butylparaben, reference compound]	–	–	–	–	–	–	–	–	–	–	–	–	–	–	–	200 (≈ 1030 µM)	200 (≈ 1030 µM)	200 (≈ 1030 µM)	200 (≈ 1030 µM)	100 (≈ 515 µM)	MIC ([2]; JCM6328, 72 h): 100 µg/mL (≈ 515 µM); MIC ([4]; JCM6473, 72 h): 100 µg/mL (≈ 515 µM); MIC ([8]; JCM5560, 72 h): 50 µg/mL (≈ 257 µM); MIC ([9]; 18 h): 100 µg/mL (≈ 515 µM); MIC ([10]; IFO3134, 18 h): 200 µg/mL (≈ 1030 µM); MIC ([11]; JCM8350, 72 h): 100 µg/mL (≈ 515 µM); MIC ([12]; JCM8525, 72 h): 50 µg/mL (≈ 257 µM); MIC ([13]; JCM6322, 72 h): 100 µg/mL (≈ 515 µM); MIC ([14]; JCM1324, 18 h): 50 µg/mL (≈ 257 µM); MIC ([15]; JCM8352, 72 h): 100 µg/mL (≈ 515 µM)
Oc1cc(Cl)ccc1Oc1ccc(Cl)cc1Cl [Triclosan, triclosan, reference compound]	–	–	–	–	–	–	–	–	–	–	–	–	–	–	–	1.6 (≈ 5.53 µM)	1.6 (≈ 5.53 µM)	1.6 (≈ 5.53 µM)	1.6 (≈ 5.53 µM)	1.6 (≈ 5.53 µM)	MIC ([9]; 18 h): 1.6 µg/mL (≈ 5.53 µM); MIC ([10]; IFO3134, 18 h): 0.78 µg/mL (≈ 2.69 µM); MIC ([14]; JCM1324, 18 h): 3.1 µg/mL (≈ 10.7 µM)
sucrose fatty acid ester	–	–	–	–	–	–	–	–	–	–	–	–	–	–	–	–	–	–	–	–	Minimum inhibitory concentration (MIC) [16]: 20 ppm; Minimum inhibitory concentration (MIC) [17]: 20 ppm
